Assay results reported in patent publication US9326955B2, “Combination pharmaceuticals and methods thereof using proteinacious channels as treatments for medical conditions” (Loyola University Chicago, priority 2008, dated 2016).
“Also recorded” adds a separate entry of the source. Like-named read-outs stand apart in the source and are kept apart here.

Experiments:
[1] = randomized clinical trials / clinical studies; cited from earlier work
[2] = test system: Kv7 channels; assay: Perforated patch clamp of Kv7 currents in freshly isolated guinea pig ASMCs; assay type: cell-based
Protocol: Another investigation relating to this aspect of the invention was directed to investigating Kv7 currents in freshly dissociated guinea pig ASMCs. […] 197-218 (1992), ASMCs were isolated from guinea pig bronchioles by enzymatic digestion and whole cell perforated patch clamp electrophysiology was used to record Kv7 currents. Kv7 currents were recorded in isolation from other ionic currents by including 100 μM gadolinium chloride in the external solution and applying relatively long (about five second) voltage steps, during which many other classes of channels inactivate.

[3] = 100 mg dose; cited from earlier work
[4] = test system: vascular Kv7 channels; assay: Electrophysiology of Kv7 currents in vascular smooth muscle cells; assay type: cell-based, rat and human; conditions: for effect on vascular Kv7 channels: vascular smooth muscle cells
Protocol: The scope of the present invention further encompasses the tools used to measure vascular Kv7 channel activities and/or functional contributions of these channels in vascular smooth muscle cells. […] For example, flupirtine is a known Kv7 channel activator used to treat pain; plasma concentrations achieved clinically can be as high as about 12 μM with a 100 mg dose (Abrams et al., “Pharmacokinetics of flupirtine in elderly volunteers and in patients with moderate renal impairment,” Postgraduate Medical Journal, 64: 361-363 (1988)) and doses up to about 600 mg are routinely given to treat chronic pain. […] Further indications to support such predictions may be obtained by measuring the effects of drugs on constriction/dilation of pressurized arteries.

[5] = test system: KCNQ channels; assay: Patch-clamp of KCNQ currents in rat airway myocytes (ASMCs); assay type: cell-based
Protocol: An investigation relating to these aspects of the invention was conducted to determine whether KCNQ (Kv7) K^+ channels are expressed and functional in rat airway myocytes. To accomplish this, a combination of real time polymerase chain reaction (RT-PCR) and patch-clamp electrophysiology was used. Isolation of rat ASMCs from bronchial strips for the patch-clamp electrophysiology as well as RNA isolation from rat trachea for the RT-PCR were performed using methods as described in Brueggemann et al., “KCNQ (Kv7) potassium channel activators as bronchodilators: combination with a β2-adrenergic agonist enhances relaxation of rat airways,” Am J Physiol Lung Cell Mol Physiol (in press), incorporated herein by reference.
Therefore K^+ currents in enzymatically dispersed rat airway myocytes were measured using patch-clamp electrophysiology.
After 10 minutes of MeCh treatment, the time course recording was interrupted for 10 minutes for measurement of steady-state I-V relationship (time break indicated by vertical gray lines). Then, after an additional one minute recording at −20 mV holding voltage, retigabine (10 μM) was applied in the presence of MeCh for 5 minutes. The time course recording was interrupted again for ten minutes for measurement of steady-state I-V relationship and, after an additional one minute time course recording, XE991 (1 μM) was applied in the presence of MeCh and retigabine for ten minutes.
The investigation examined whether the bronchorelaxant effects of long-acting β2-adrenergic receptor agonist, formoterol, were mediated via activation of KCNQ channels in rat airway myocytes. […] The time course recording was interrupted for 10 minutes for measurement of steady-state I-V relationship (time break indicated by vertical gray lines). After an additional 5 minutes recording, retigabine (10 μM) was applied in the continued presence of formoterol. The time course recording was interrupted again for 10 minutes for recording of steady-state I-V curves, and, after an additional 5 minutes recording, XE991 (1 μM) was applied in the presence of retigabine.

[6] = test system: rat bronchioles in precision-cut lung slices (PCLS); assay: Airway constriction/relaxation in rat precision-cut lung slices (PCLS); conditions: for bronchorelaxant action when XE991 is included: with XE991 10 μM
Protocol: Another investigation was performed to investigate the ability of KCNQ channel activators to attenuate MeCh-induced concentration-dependent constriction of rat bronchioles in precision-cut lung slices (PCLS). The PCLS were prepared using methods described by Brueggemann et al., “KCNQ (Kv7) potassium channel activators as bronchodilators: combination with a β2-adrenergic agonist enhances relaxation of rat airways,” Am J Physiol Lung Cell Mol Physiol (in press). PCLS were superfused with increasing concentrations of MeCh in the range from 100 nM to 1 μM. Each concentration was applied for thirty minutes, followed by a forty-five minute washout prior to application of the next MeCh concentration (FIG. 12A,B). […] Percent of airway constriction, relative to the cross-sectional area measured before the initial MeCh treatment, was calculated for each MeCh concentration and plotted against concentration of MeCh.
Bronchorelaxant effects were further assessed by measuring the extent of bronchoconstriction when MeCh was applied in the absence or presence of different structurally unrelated KCNQ channel activators (or vehicle).
FIG. 13C is a representative time course of changes in lumenal area of a small airway in rat PCLS on application of 230 nM MeCh (thirty minutes) followed by application of 230 nM MeCh in the presence of 10 nM formoterol (FF, thirty minutes). Dashed vertical lines marked “max” and “final” indicate 1 minute time intervals where the maximum or final relaxation was measured relative to the MeCh-induced constriction (measured during the last minute of MeCh alone). FIG. 13D is a representative time course of changes in lumenal area of a small airway treated as in panel C, except that 10 μM retigabine was included with the formoterol treatment (“FF+R,” thirty minutes).
The amount of desensitization for each concentration of formoterol in the absence and presence of 10 μM retigabine was estimated by subtraction of final relaxation (after thirty-minute treatment) from maximal relaxation.
To further investigate the desensitization to formoterol in rat PCLS, formoterol (10 nM) was applied twice, at a 90 minute interval, to airways constricted repetitively with 230 nM MeCh.

[7] = test system: ovalbumin-sensitized guinea pigs; assay: Aerosolized ovalbumin challenge with inhaled retigabine in guinea pigs; conditions: thirty-minute exposure with ovalbumin, doses up to 1 mM
Protocol: To assess the feasibility of inhalational therapy with a Kv7 channel activator, an investigation was conducted to assess the ability of retigabine to exert a therapeutic anti-bronchospastic benefit in vivo. […] This model involves a series of three intraperitoneal injections of ovalbumin (OA) or saline (as control) over a one week period, followed by a two-week sensitization period, and finally challenge with aerosolized ovalbumin.
In the investigation, two saline-control and two ovalbumin-sensitized animals were exposed to aerosolized ovalbumin on three consecutive days, but in this case the ovalbumin treatment was administered with varying doses of retigabine on consecutive days.

[8] = compared with celecoxib; cited from earlier work
[9] = target: vascular L-type Ca^2+ channels (Homo sapiens, UniProt Q13936); conditions: vascular smooth muscle cells
Protocol: The activities were measured for two types of ion channels that are perhaps the most important in determining the contractile state of vascular smooth muscle cells: potassium (K^+) channels, which determine the resting membrane voltage, and voltage-sensitive calcium (Ca^2+) channels (VSCC), the activation of which allows Ca^2+ influx and vasoconstriction. […] The actions of these drugs can be assessed at the level of isolated arterial myocytes and intact pressurized arteries.

[10] = test system: Sprague-Dawley rats; assay: Mean arterial pressure and mesenteric vascular resistance in anesthetized instrumented rats; assay type: in vivo, rat
[11] = test system: human PCLS; assay: Airway relaxation in human PCLS from an asthmatic lung; conditions: 30 pM alone, thirty-minute treatment (H1+F)
Excerpt: FIG. 15A is a representative recording of airway area from a PCLS derived from an asthmatic human lung.

[12] = 10 nM, 230 nM MeCh (FIG. 14A,C)
[13] = 10 nM, 90 minute interval (FIG. 14A,C)
[14] = formoterol 10 nM alone (FIG. 14B,D)

Chain of vascular L-type Ca^2+ channels (Q13936 whole entry): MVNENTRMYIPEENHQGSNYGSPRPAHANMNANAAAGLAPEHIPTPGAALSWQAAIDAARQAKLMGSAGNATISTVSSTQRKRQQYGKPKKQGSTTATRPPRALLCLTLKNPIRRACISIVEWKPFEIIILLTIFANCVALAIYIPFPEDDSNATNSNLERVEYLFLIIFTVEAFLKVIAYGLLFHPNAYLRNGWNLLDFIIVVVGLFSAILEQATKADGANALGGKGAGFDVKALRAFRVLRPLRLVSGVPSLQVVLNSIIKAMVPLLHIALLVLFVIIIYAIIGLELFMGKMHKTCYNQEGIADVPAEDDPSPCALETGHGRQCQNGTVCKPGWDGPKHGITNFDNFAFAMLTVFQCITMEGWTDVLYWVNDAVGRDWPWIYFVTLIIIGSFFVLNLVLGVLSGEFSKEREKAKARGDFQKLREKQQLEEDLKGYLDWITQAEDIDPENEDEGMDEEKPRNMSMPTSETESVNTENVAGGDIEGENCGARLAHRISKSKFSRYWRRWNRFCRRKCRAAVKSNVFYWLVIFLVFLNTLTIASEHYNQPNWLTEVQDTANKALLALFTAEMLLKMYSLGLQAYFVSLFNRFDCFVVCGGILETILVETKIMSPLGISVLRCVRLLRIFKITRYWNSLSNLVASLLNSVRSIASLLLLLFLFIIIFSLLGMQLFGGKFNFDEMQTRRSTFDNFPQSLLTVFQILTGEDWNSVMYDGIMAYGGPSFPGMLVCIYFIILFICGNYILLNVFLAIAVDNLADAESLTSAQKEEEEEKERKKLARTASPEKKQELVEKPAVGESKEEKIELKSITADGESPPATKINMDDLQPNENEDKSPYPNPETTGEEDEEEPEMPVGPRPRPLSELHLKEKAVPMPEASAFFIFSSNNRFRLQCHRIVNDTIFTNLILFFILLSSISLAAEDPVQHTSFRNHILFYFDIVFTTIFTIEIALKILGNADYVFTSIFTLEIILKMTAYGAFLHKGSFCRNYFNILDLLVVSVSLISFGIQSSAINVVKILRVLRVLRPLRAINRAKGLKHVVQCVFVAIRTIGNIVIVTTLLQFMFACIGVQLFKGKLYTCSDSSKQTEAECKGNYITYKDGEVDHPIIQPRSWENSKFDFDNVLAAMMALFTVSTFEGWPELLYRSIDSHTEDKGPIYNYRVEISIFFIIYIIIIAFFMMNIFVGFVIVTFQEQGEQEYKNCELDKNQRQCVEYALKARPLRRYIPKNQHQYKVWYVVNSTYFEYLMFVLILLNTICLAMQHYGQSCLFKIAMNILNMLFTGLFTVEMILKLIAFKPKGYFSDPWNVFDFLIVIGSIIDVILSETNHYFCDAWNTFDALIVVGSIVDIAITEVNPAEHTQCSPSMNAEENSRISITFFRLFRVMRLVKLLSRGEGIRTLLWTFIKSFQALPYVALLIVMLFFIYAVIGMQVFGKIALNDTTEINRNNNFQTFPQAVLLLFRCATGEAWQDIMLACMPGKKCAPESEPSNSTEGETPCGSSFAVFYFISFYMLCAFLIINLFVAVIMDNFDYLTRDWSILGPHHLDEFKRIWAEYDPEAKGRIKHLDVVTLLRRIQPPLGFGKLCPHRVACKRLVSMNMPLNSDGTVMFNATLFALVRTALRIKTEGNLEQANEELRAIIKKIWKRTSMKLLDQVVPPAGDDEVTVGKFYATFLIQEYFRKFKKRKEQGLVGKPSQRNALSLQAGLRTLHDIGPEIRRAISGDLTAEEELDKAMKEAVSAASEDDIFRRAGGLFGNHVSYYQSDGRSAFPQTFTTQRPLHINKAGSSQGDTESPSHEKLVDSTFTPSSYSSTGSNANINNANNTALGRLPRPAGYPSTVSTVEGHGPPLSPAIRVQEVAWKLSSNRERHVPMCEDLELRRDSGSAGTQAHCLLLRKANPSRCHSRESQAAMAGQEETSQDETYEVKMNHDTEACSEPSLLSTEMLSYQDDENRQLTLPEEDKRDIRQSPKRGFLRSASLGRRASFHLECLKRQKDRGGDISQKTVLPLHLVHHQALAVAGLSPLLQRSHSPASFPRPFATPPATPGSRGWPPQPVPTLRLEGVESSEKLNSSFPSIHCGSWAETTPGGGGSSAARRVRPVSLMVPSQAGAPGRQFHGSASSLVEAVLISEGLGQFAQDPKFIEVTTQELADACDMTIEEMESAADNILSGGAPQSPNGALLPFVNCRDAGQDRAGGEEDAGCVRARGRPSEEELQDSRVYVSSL
Chain of vascular L-type Ca^2+ channels (P54284 whole entry partner): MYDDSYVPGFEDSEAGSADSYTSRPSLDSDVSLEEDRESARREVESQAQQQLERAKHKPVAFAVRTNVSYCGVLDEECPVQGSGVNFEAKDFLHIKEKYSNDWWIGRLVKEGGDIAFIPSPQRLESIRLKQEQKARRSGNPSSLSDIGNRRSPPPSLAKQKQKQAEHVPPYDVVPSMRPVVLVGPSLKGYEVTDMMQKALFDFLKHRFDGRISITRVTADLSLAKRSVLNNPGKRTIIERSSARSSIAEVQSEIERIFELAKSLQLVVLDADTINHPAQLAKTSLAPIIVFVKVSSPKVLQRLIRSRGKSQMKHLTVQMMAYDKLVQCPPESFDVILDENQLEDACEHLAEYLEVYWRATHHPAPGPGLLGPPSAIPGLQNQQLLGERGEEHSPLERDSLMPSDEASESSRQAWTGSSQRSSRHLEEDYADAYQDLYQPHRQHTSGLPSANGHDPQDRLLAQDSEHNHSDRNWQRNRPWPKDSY
Chain of vascular L-type Ca^2+ channels (P54289 25-956 partner limits assumed): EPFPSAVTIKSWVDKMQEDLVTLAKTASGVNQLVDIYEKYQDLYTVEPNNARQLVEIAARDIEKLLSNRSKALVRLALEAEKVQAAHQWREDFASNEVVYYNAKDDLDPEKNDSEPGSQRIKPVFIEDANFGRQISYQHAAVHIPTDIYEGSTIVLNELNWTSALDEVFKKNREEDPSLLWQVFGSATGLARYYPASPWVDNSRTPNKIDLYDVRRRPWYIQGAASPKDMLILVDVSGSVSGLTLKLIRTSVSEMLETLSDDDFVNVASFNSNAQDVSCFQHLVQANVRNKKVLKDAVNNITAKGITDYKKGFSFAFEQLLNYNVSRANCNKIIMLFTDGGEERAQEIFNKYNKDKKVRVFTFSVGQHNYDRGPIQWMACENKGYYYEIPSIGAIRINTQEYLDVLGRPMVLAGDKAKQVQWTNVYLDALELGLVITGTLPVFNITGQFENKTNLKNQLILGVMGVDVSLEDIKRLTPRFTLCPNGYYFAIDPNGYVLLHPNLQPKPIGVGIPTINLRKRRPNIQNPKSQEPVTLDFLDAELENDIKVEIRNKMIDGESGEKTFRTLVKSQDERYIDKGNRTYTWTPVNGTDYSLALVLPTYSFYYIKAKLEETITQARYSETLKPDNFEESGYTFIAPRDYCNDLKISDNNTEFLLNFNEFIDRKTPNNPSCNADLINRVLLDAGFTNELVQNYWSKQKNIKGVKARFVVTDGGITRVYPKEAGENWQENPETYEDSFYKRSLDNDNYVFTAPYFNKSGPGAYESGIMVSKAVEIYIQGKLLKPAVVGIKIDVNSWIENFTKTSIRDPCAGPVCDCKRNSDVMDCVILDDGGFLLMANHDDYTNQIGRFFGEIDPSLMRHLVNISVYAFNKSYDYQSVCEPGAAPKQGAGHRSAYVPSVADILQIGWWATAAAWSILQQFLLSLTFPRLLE
Chain of vascular L-type Ca^2+ channels (P54289 957-1103 partner limits assumed): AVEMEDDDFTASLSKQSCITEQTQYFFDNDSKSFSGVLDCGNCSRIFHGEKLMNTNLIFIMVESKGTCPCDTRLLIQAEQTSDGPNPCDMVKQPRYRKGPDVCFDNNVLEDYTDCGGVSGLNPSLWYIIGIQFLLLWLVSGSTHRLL

## Cc1ccc(-c2cc(C(F)(F)F)nn2-c2ccc(S(N)(=O)=O)cc2)cc1 [celecoxib]
[1]
  risk of cardiovascular (CV) events: failed to demonstrate an increased CV risk

## NCCc1c[nH]cn1 [histamine]
[2]; 30 μM
  effect on ASMC Kv7 currents: significantly suppressed

## CCOC(=O)Nc1ccc(NCc2ccc(F)cc2)nc1N [flupirtine]
[3]
  plasma concentration achieved clinically: about 12 μM
[4]; 10 μM
  increase of vascular Kv7 current: 100%

## zinc pyrithione
[5]; rat ASMCs, 100 nM
  effect on KCNQ currents at −20 mV holding voltage: enhanced
[5]; voltage step protocol, retigabine 10 μM, ZnPyr 100 nM
  threshold of KCNQ channel activation: shifted the threshold of channel activation to more negative voltages
[6]; 1 μM, 230 nM MeCh, relative to vehicle
  reduction of MeCh-induced airway constriction: 21%
[6]
  bronchorelaxant action when XE991 is included: suppressed or prevented

## CCOC(=O)Nc1ccc(NCc2ccc(F)cc2)cc1N [retigabine]
[7]
  effect on saline control animals: no apparent effect
[6]; 10 μM, 230 nM MeCh
  reduction of MeCh-induced airway constriction: about 31%
  relaxation when applied alone: 45.7±4.9%
[6]; Rattus norvegicus, read-out: EC50 of relaxation of pre-constricted airways
  EC50: 3600 ± 300 nM
[6]; pre-constricted thirty minutes with 230 nM MeCh
  maximum relaxation: 61±9%

## Cc1ccc(C)c(-c2cc(C(F)(F)F)nn2-c2ccc(S(N)(=O)=O)cc2)c1 [2,5-dimethyl-celecoxib]
[5]; rat ASMCs, 10 μM
  effect on KCNQ currents at −20 mV holding voltage: effective as an activator
[8]
  anti-cancer activity: stronger anti-cancer activity than celecoxib itself
[4]
  effect on vascular Kv7 channels: potent activator
[9]
  effect on vascular L-type Ca^2+ channels: inhibitor
[6]; 10 μM, 230 nM MeCh
  reduction of MeCh-induced airway constriction: 23%
[6]
  bronchorelaxant action when XE991 is included: not significantly reduced

## O=C(O)Cc1ccccc1Nc1c(Cl)cccc1Cl [diclofenac]
[1]
  risk of cardiovascular (CV) events: significantly increased the risk of cardiovascular (CV) events
[4]
  effect on vascular Kv7 channels: pronounced effects

## CS(=O)(=O)c1ccc(C2=C(c3ccccc3)C(=O)OC2)cc1 [rofecoxib]
[1]
  risk of cardiovascular (CV) events: significantly increased the risk of cardiovascular (CV) events
[4]
  effect on vascular Kv7 channels: does not exhibit either effect
[9]
  effect on vascular L-type Ca^2+ channels: does not exhibit either effect

## CC(=O)OC(C)C[N+](C)(C)C (stereo not shown) [methacholine]
[5]; rat ASMCs, 230 nM, n=7
  reduction of KCNQ currents at −20 mV: 55.1±6.2%
[2]; 100 nM, −20 mV
  effect on ASMC Kv7 currents: completely suppressed
[6]; rat PCLS, 100 nM to 1 μM, Hill fit, n=5, read-out: EC50 of airway constriction
  EC50: 248 ± 49 nM
[6]; rat PCLS, n=5
  Hill coefficient of airway constriction: 1.6±0.2
  maximal constriction: 81±7%

## CC(C)NCC(O)c1ccc(O)c(O)c1 (stereo not shown) [isoproterenol]
[5]; rat ASMCs, 100 nM
  effect on KCNQ currents at −20 mV holding voltage: ineffective in enhancement of KCNQ currents

## O=C1N(c2ccccc2)c2ccccc2C1(Cc1ccncc1)Cc1ccncc1 [linopirdine]
[10]
  mean arterial pressure (MAP): opposite effects
  mesenteric vascular resistance (MVR): opposite effects
[2]; celecoxib 10 μM at −20 mV
  effect on ASMC Kv7 currents: complete suppression

## O=C1c2ccccc2C(Cc2ccncc2)(Cc2ccncc2)c2ccccc21 [XE991]
[5]; 1 μM, subsequent application after retigabine (with MeCh or formoterol)
  effect on KCNQ currents in the presence of retigabine: completely abolished; also recorded: effectively abolished
[5]; rat ASMCs, 10 μM
  effect on KCNQ currents at −20 mV holding voltage: inhibited
[2]; celecoxib 10 μM at −20 mV
  effect on ASMC Kv7 currents: complete suppression

## COc1ccc(C[C@@H](C)NC[C@H](O)c2ccc(O)c(NC=O)c2)cc1.COc1ccc(C[C@@H](C)NC[C@H](O)c2ccc(O)c(NC=O)c2)cc1.O=C(O)/C=C/C(=O)O [formoterol, formoterol fumarate]
[5]; rat ASMCs, 10 nM
  effect on KCNQ currents at −20 mV holding voltage: did not enhance KCNQ currents
[11]
  relaxation of histamine-constricted asthmatic human airway: 18%
[6]; [12]
  final relaxation after thirty minutes, first application: 46±14%
  peak relaxation, first application: 68±10%
[6]; [13]
  final relaxation, second application: 32±6%
  peak relaxation, second application: 48±8%
[6]; at 1 μM, 230 nM MeCh
  maximum relaxation of airways constricted with MeCh: 72±5%
[6]; concentrations greater than or equal to 10 nM
  time course of relaxation response: noticeable time-dependent decline in the relaxation response
[6]; [14]
  final relaxation, acute exposure of the same slices: 34±6%
  peak relaxation, acute exposure of the same slices: 59±4%
